This note sets out measurements from patent US9844536B2, “3-(1H-imidazo[4,5-C]pyridin-2-yl)-1H-pyrazolo[3,4-C]pyridine and therapeutic uses thereof” (Samumed, LLC, priority 2014, dated 2017).

A word on the IC50: it is the concentration that inhibits the measured activity by half. Read a high IC50 as a need for much substance. In general, EC50 refers to the concentration at which the effect is half-maximal.

Common to all, as to assay type: cell-based
Experiment [1] deals with Wnt pathway (Sp5-Luc reporter, SW480 cells). Put plainly: Sp5-Luc reporter gene screening assay for Wnt activity in SW480 colon carcinoma cells. The conditions noted are these: Homo sapiens. The gist of the method:
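IC50 values come from variable-slope four-parameter fits of luciferase signal normalized to DMSO wells. Stable Sp5-Luc reporter SW480 colon carcinoma cells were exposed to compounds in a 3-fold dilution series (source plates from 10 mM stock) for forty-two hours at 37 °C.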
(In general: A reporter such as luciferase makes a cellular process visible.)

The subject of experiment [2] is primary human mesenchymal stem cells (hMSCs). Put plainly: Chondrogenesis induction screen in primary human mesenchymal stem cells (nodules, Rhodamine B/Nile Red). The conditions noted are these: 144 h, 6 days; for EC (100% TGF-beta3 activity): concentration required to induce chondrogenesis equivalent to TGF-β3 (10 ng/mL), read-out: Conc (nM) of 100% TGF-β3 activity; for Emax: relative to TGF-β3 (10 ng/mL) positive control, read-out: Max. Activity as % TGF-β3 activity. On the procedure:
The above synthesized compounds were screened using primary human mesenchymal stem cells (hMSCs) to determine their ability to induce chondrogenesis (process by which cartilage is developed).
Primary human mesenchymal stem cells (hMSCs) were purchased from Lonza (Walkersville, Md.) and expanded in Mesenchymal Stem Cell Growth Media (Lonza). Cells between passage 3 and 6 were used for the experiments.
Each compound was dissolved in DMSO as a 10 mM stock and used to prepare compound source plates. Serial dilution (1:3, 6-point dose-response curves from 2700 nM to 10 nM) and compound transfer was performed using the ECHO 550 (Labcyte, Sunnyvale, Calif.) into 96-well clear bottom assay plates (Greiner Bio-One) with appropriate DMSO backfill for a final DMSO concentration of 0.03%. hMSCs were plated at 20,000 cells/well in 250 μL/well Incomplete Chondrogenic Induction Medium (Lonza; DMEM, dexamethasone, ascorbate, insulin-transferrin-selenium [ITS supplement], gentamycin-amphotericin [GA-1000], sodium pyruvate, proline and L-glutamine). TGF-β3 (10 ng/mL) was used as a positive control for differentiation while negative control wells were treated with 75 nL DMSO for normalization and calculating EC50 values. Cells were incubated at 37° C. and 5% CO2 for 6 days. To image chondrogenic nodules, the cells were fixed using 4% formaldehyde (Electron Microscopy Sciences), and stained with 2 μg/mL Rhodamine B (Sigma-Aldrich) and 20 μM Nile Red (Sigma-Aldrich) [Johnson K., et. al, A Stem Cell-Based Approach to Cartilage Repair, Science, (2012), 336(6082), 717-721]. The nodules imaged (4 images per well at 4× magnification) by excitation at 531 nm and emission at 625 nm and quantified using the CellInsight CX5 (Thermo Scientific). Number of nodules in each well was normalized to the average of 3 DMSO treated wells on the same plate using Excel (Microsoft Inc.). The normalized averages (fold change over DMSO) of 3 replicate wells for each compound concentration were calculated. Due to solubility limitations of some of the compounds, curve fitting was incomplete leading to inaccurate EC50 determinations.
Using TGF-03 as a positive control, the concentration of test compounds required to induce equivalent levels of chondrogenesis is reported. In addition, the maximum activity of each compound and the respective dose that each compound reached maximum chondrogenesis activity is reported.

For a further experiment, the system named is LL29 cells. Put plainly: Inhibition of the fibrotic process (αSMA staining) in TGF-β1 treated primary human fibroblasts from IPF patients. The conditions noted are these: Fibroblast, 96 h, TGF-β1 20 ng/mL, 4 days, dose-response 10 μM to 1.87 nM, read-out: Inhibition of fibrosis EC50. The gist of the method:
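LL29 IPF lung fibroblasts in 1% FBS were stimulated with TGF-β1 (20 ng/mL) and treated 4 days at 37 °C with compound (11 points, 10 μM–1.87 nM, 0.1% DMSO). The % αSMA-positive cells, imaged after excluding SYTOX-positive dead cells, was normalized to TGF-β1/DMSO wells. EC50 came from nonlinear regression over triplicates.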

The subject of a further experiment is ARPE-19 cells. Description: Transdifferentiation of ARPE-19 cells into eye neuronal cells [photoreceptors], PAX6 staining. The conditions noted are these: Homo sapiens, fixed at 40 hours, PAX6 antibody staining, normalized to DMSO. On the procedure: The above synthesized compounds were screened using ARPE-19 cells [a spontaneously arising retinal pigment epithelia (RPE) cell line] to determine their ability to transdifferentiate ARPE-19 into eye neuronal cells [photoreceptors].
ARPE-19 cells are cultured in standard culture medium containing Dulbecco's Modified Eagle's Medium and Ham's F12 Nutrient Mixture (DMEM/F12) mix (1:1)+GlutaMax with 1% penicillin-Streptomycin and 10% FBS (Fetal Bovine Serum). Cells are incubated at 37° C. with 5% CO2. Cells are trypsinized and plated onto 384-well pre-spotted plate at a density of 3000 cells/well in 50 uL of media. Plating media: DMEM/F12 (1:1)+3% charcoal filtered-FBS+GlutaMax+1% pen/Strep. Cells are incubated at 37° C. with 5% CO2. At 40 hours, cells were fixed for 15 min with 10% Buffered Formalin. Cells were then washed 3 times with PBS for 5 min each, permeablize using 0.3% Triton X-100 in 1×PBS for 30 min, block for 1 hr with 2% BSA in 1×PBS with 0.1% Triton X-100. The primary antibody (1:100 PAX6 Santa Cruz Biotech; sc-81649) was diluted and 10 μL/well was added to the cells. The cells were incubated overnight at 4° C. […] Readings were normalized to DMSO only treated cells, and normalized activities were utilized for EC50 calculations using the dose-response log (activator) vs. response-variable slope (four parameters) nonlinear regression feature available in GraphPad Prism 5.0 or 6.0.

For `CC(C)Nc1cncc(-c2cc3c(-c4nc5c(-c6ccoc6)nccc5[nH]4)n[nH]c3cn2)c1` [Compound 298, 5-(3-(4-(Furan-3-yl)-1H-imidazo[4,5-c]pyridin-2-yl)-1H-pyrazolo[3,4-c]pyridin-5-yl)-N-isopropylpyridin-3-amine], the half-maximal inhibitory concentration (IC50) in experiment [1] amounted to 0.015 µM. For the same compound, in experiment [2], the EC (100% TGF-beta3 activity) amounted to 219 nM and the Emax stood at 300%. Moreover, the EC50 with LL29 cells amounted to 0.065 µM.

Compound `Nc1cncc(-c2cc3c(-c4nc5c(-c6ccccc6F)nccc5[nH]4)n[nH]c3cn2)c1` [Compound 55, 5-(3-(4-(2-Fluorophenyl)-1H-imidazo[4,5-c]pyridin-2-yl)-1H-pyrazolo[3,4-c]pyridin-5-yl)pyridin-3-amine] gave an IC50 in experiment [1] of 0.0166 µM. Further, the EC (100% TGF-beta3 activity) in experiment [2] stood at 145 nM. Moreover, in the experiment on LL29 cells, the EC50 is ≤ 0.009 µM.

On to `O=C(Nc1cncc(-c2cc3c(-c4nc5c(-c6cccs6)nccc5[nH]4)n[nH]c3cn2)c1)C1CC1` [Compound 331, N-(5-(3-(4-(Thiophen-2-yl)-1H-imidazo[4,5-c]pyridin-2-yl)-1H-pyrazolo[3,4-c]pyridin-5-yl)pyridin-3-yl)cyclopropanecarboxamide], for which the IC50 in experiment [1] came out at 0.0164 µM. Moreover, in experiment [2], the EC (100% TGF-beta3 activity) is 68.4 nM. Besides, the EC50 in the experiment with LL29 cells was ≤ 0.009 µM.

Compound `c1cncc(-c2cc3c(-c4nc5c(-c6cccnc6)nccc5[nH]4)n[nH]c3cn2)c1` [Compound 82, 5-(Pyridin-3-yl)-3-(4-(pyridin-3-yl)-1H-imidazo[4,5-c]pyridin-2-yl)-1H-pyrazolo[3,4-c]pyridine] had an IC50 in experiment [1] of 0.0017 µM. Besides, the EC (100% TGF-beta3 activity) in experiment [2] was determined as 44.5 nM.

In turn, `COc1cncc(-c2cc3c(-c4nc5c(-c6cccc(F)c6)nccc5[nH]4)n[nH]c3cn2)c1` [Compound 948, 3-(4-(3-Fluorophenyl)-1H-imidazo[4,5-c]pyridin-2-yl)-5-(5-methoxypyridin-3-yl)-1H-pyrazolo[3,4-c]pyridine] registered an IC50 in experiment [1] of 0.01 µM. Further, in experiment [2], the EC (100% TGF-beta3 activity) turned out to be 174 nM and the Emax turned out to be 900%. For the same compound, in the experiment on LL29 cells, the EC50 is ≤ 0.009 µM.

For `Cc1cn(-c2nccc3[nH]c(-c4n[nH]c5cnc(-c6cncc(NC(=O)C(C)(C)C)c6)cc45)nc23)cn1` [Compound 190, N-(5-(3-(4-(4-Methyl-1H-imidazol-1-yl)-1H-imidazo[4,5-c]pyridin-2-yl)-1H-pyrazolo[3,4-c]pyridin-5-yl)pyridin-3-yl)pivalamide], in experiment [1], the concentration for half-maximal inhibition (IC50) amounted to 0.0328 µM. In addition, in experiment [2], the EC (100% TGF-beta3 activity) is 71.8 nM and the Emax worked out at 100%.

In experiment [1], `CC(C)(C)C(=O)Nc1cncc(-c2cc3c(-c4nc5c(-c6ccc(F)s6)nccc5[nH]4)n[nH]c3cn2)c1` [Compound 346, N-(5-(3-(4-(5-Fluorothiophen-2-yl)-1H-imidazo[4,5-c]pyridin-2-yl)-1H-pyrazolo[3,4-c]pyridin-5-yl)pyridin-3-yl)pivalamide] gave an IC50 of 0.0126 µM. Moreover, the EC (100% TGF-beta3 activity) in experiment [2] worked out at 40.9 nM. In addition, the EC50 in the experiment on LL29 cells is ≤ 0.009 µM.

The compound `NC1CN(c2cncc(-c3cc4c(-c5nc6c(-c7cccc(F)c7)nccc6[nH]5)n[nH]c4cn3)n2)C1` [Compound 942, 1-(6-(3-(4-(3-Fluorophenyl)-1H-imidazo[4,5-c]pyridin-2-yl)-1H-pyrazolo[3,4-c]pyridin-5-yl)pyrazin-2-yl)azetidin-3-amine] registered an IC50 in experiment [1] of 0.046 µM. Besides, the results for the 50% effective concentration (EC50) in the experiment on ARPE-19 cells and in the experiment with LL29 cells were 0.005 µM and 0.303 µM, respectively.

The compound `CCCC(=O)Nc1cncc(-c2cc3c(-c4nc5c(-c6cccc(F)c6)nccc5[nH]4)n[nH]c3cn2)c1` [Compound 17, N-(5-(3-(4-(3-Fluorophenyl)-1H-imidazo[4,5-c]pyridin-2-yl)-1H-pyrazolo[3,4-c]pyridin-5-yl)pyridin-3-yl)butyramide] yielded an IC50 in experiment [1] of 0.0107 µM. For the same compound, in experiment [2], the EC (100% TGF-beta3 activity) turned out to be 67.8 nM and the Emax is 10%. In the experiment with LL29 cells, the EC50 is ≤ 0.009 µM.

Consider `FC1(F)CCN(Cc2cncc(-c3cc4c(-c5nc6c(N7CCCCC7)nccc6[nH]5)n[nH]c4cn3)c2)C1` [Compound 181, 5-(5-((3,3-Difluoropyrrolidin-1-yl)methyl)pyridin-3-yl)-3-(4-(piperidin-1-yl)-1H-imidazo[4,5-c]pyridin-2-yl)-1H-pyrazolo[3,4-c]pyridine], for which the IC50 in experiment [1] is 0.0616 µM. In experiment [2], the EC (100% TGF-beta3 activity) came to 68.1 nM. Besides, the EC50 in the experiment with LL29 cells was determined as 0.14 µM.

In experiment [1], `CC(=O)c1ccc(-c2nccc3[nH]c(-c4n[nH]c5cnc(-c6cccnc6)cc45)nc23)s1` [Compound 394, 1-(5-(2-(5-(Pyridin-3-yl)-1H-pyrazolo[3,4-c]pyridin-3-yl)-1H-imidazo[4,5-c]pyridin-4-yl)thiophen-2-yl)ethan-1-one] came in with an IC50 of 0.0055 µM. Moreover, in experiment [2], the EC (100% TGF-beta3 activity) was 142 nM and the Emax amounted to 10%. Besides, the EC50 with LL29 cells turned out to be 0.014 µM.

`Cc1ccc(-c2nccc3[nH]c(-c4n[nH]c5cnc(-c6cncc(N)c6)cc45)nc23)s1` [Compound 367, 5-(3-(4-(5-Methylthiophen-2-yl)-1H-imidazo[4,5-c]pyridin-2-yl)-1H-pyrazolo[3,4-c]pyridin-5-yl)pyridin-3-amine] came in with an IC50 in experiment [1] of 0.0021 µM. In experiment [2], the EC (100% TGF-beta3 activity) came out at 259 nM and the Emax came to 10%. Moreover, in the experiment with LL29 cells, the EC50 is ≤ 0.009 µM.

In experiment [1], `Cn1cc(-c2cc3c(-c4nc5c(-c6cccc(F)c6)nccc5[nH]4)n[nH]c3cn2)cn1` [Compound 940, 3-(4-(3-Fluorophenyl)-1H-imidazo[4,5-c]pyridin-2-yl)-5-(1-methyl-1H-pyrazol-4-yl)-1H-pyrazolo[3,4-c]pyridine] gave an IC50 of 0.01 µM. Also, in experiment [2], the EC (100% TGF-beta3 activity) came to 110 nM and the Emax came to 100%. Besides, the EC50 in the experiment on LL29 cells was ≤ 0.009 µM.

`CCNCc1cncc(-c2cc3c(-c4nc5c(-c6ccsc6)nccc5[nH]4)n[nH]c3cn2)c1` [Compound 266, N-((5-(3-(4-(Thiophen-3-yl)-1H-imidazo[4,5-c]pyridin-2-yl)-1H-pyrazolo[3,4-c]pyridin-5-yl)pyridin-3-yl)methyl)ethanamine] returned an IC50 in experiment [1] of 0.0113 µM. In experiment [2], the EC (100% TGF-beta3 activity) is 67.7 nM and the Emax was 30%. Further, in the experiment with LL29 cells, the EC50 was ≤ 0.009 µM.

With `Cc1ccncc1-c1cc2c(-c3nc4c(-c5cc(F)cc(CNS(C)(=O)=O)c5)nccc4[nH]3)n[nH]c2cn1` [Compound 421, N-(3-Fluoro-5-(2-(5-(4-methylpyridin-3-yl)-1H-pyrazolo[3,4-c]pyridin-3-yl)-1H-imidazo[4,5-c]pyridin-4-yl)benzyl)methanesulfonamide], it took 0.0099 µM to reach half-maximal inhibition in experiment [1] (IC50). Further, in experiment [2], the EC (100% TGF-beta3 activity) worked out at 122 nM and the Emax amounted to 10%. The EC50 in the experiment on LL29 cells is > 10 µM.
